The target of this experiment is Melatonin receptor (Gallus gallus, UniProt P49288+P51050+P49285). Nature of the experiment: Binding affinity against chicken brain melatonin receptors using 2-[125I]iodomelatonin as radioligand.
For the compound `COc1cc2ccccc2c2c1CC(NC(C)=O)CC2` (stereo not drawn), the “Log Ki” value was -6.67.

For `COc1cc2c(CCNC(=O)C3CC3)c[nH]c2cc1F`, the “Log Ki” value is recorded as -8.6.

Turning to `CC(=O)NCCc1cccc2ccc(O)cc12`, the “Log Ki” value is -7.52.

`COc1ccc2cccc(CCNC=O)c2c1`: the “Log Ki” value is given as -8.03.

Consider `CCCC(=O)NCCc1c[nH]c2cc(F)c(OC)cc12`, for which the “Log Ki” value is -9.85.

As to `CCOc1ccc2ccccc2c1CCNC(=O)CC`, the “Log Ki” value was -8.97.

Consider `COc1ccc(-c2ccccc2)cc1CCNC(C)=O`, for which the “Log Ki” value is on record as -6.54.

As for `CCOc1ccc2ccccc2c1CCNC(C)=O`, the “Log Ki” value was -8.45.

`COc1ccc2cccc3c2c1CC(NC(C)=O)C3` (stereo not drawn): the “Log Ki” value is reported as -7.46.

For the compound `CCCNC(=O)NCCc1c[nH]c2ccc(OC)cc12`, the “Log Ki” value is -8.17.

On to `COc1ccc2cccc(CONC(C)=O)c2c1`, for which the “Log Ki” value is on record as -8.77.

Take `COc1ccc(OC)c(CCNC(=O)C(F)(F)F)c1`: the “Log Ki” value was -6.94.

For the compound `COc1ccc2ccccc2c1CONC(C)=O`, the “Log Ki” value is listed as -7.25.

`CCC(=O)NCCc1c(OC)ccc2cc(C)ccc12`: the “Log Ki” value is listed as -7.19.

Consider `COc1ccc(C)cc1CCNC(=O)C(F)(F)F`, for which the “Log Ki” value is on record as -6.64.

Consider `COc1cccc(CCNC(=O)C(F)(F)F)c1`, for which the “Log Ki” value is reported as -5.72.

Regarding `CCCC(=O)NCCc1cccc2ccc(OC)cc12`, the “Log Ki” value is listed as -10.53.

Turning to `CCC(=O)NCCc1c(OC)ccc2ccc(OC)cc12`, the “Log Ki” value is reported as -10.14.

With `COc1ccc(C)cc1CCNC(C)=O`, the “Log Ki” value is -6.71.

For `CCC(=O)NCCc1cc(Br)ccc1OC`, the “Log Ki” value is on record as -8.94.

Turning to `COc1ccc2cccc(CCNC(=O)CBr)c2c1`, the “Log Ki” value is recorded as -9.92.

For `CC(=O)NCCc1c[nH]c2ccccc12`, the “Log Ki” value is on record as -6.31.

For `CCCCC(=O)NCCc1cccc2ccc(OC)cc12`, the “Log Ki” value is -7.35.

In the case of `CCC(=O)NCCc1cc(OC)cc2ccc(OC)cc12`, the “Log Ki” value is given as -7.92.

`CCCCC(=O)NCCc1cccc2ccccc12`: the “Log Ki” value was -6.62.

In the case of `COc1ccc2[nH]cc(CCNC(=O)C3CC3)c2c1`, the “Log Ki” value is reported as -8.6.

Take `CCC(=O)NCCc1cccc2ccc(OC)cc12`: the “Log Ki” value is reported as -9.74.

Consider `COc1ccc2cccc(CCNC(=O)C3CC3)c2c1`, for which the “Log Ki” value is recorded as -7.71.

On to `CCOc1ccc2ccccc2c1CCNC(=O)C(F)(F)F`, for which the “Log Ki” value was -8.23.

As to `COc1ccc2ccc(OC)c(CCNC(C)=O)c2c1`, the “Log Ki” value was -9.62.

`COc1ccc2ccc(OC)c(CCNC(=O)C(F)(F)F)c2c1`: the “Log Ki” value was -9.41.

Consider `COc1ccc2ccccc2c1CCNC(=O)C(F)(F)F`, for which the “Log Ki” value is -9.26.

`COc1ccc(OC)c(CCNC(C)=O)c1`: the “Log Ki” value is given as -7.15.

These data come from ChEMBL document CHEMBL1130377 (J Med Chem, 1997).
